Test results reported in ChEMBL document CHEMBL2424635, “Discovery of novel histidine-derived lipo-amino acids: applied in the synthesis of ultra-short antimicrobial peptidomimetics having potent antimicrobial activity, salt resistance and protease stability” (Eur J Med Chem, 2013).
In brackets after ≈: the same amount, converted by molar mass. Activity calls are given as the source filed them. The rule behind the calls is not given here.

Assays:
Staphylococcus aureus [1] = assay: Antibacterial activity against Staphylococcus aureus KCTC 1621 assessed as growth inhibition at 50 ug/ml after 18 to 20 hrs by broth microdilution method in presence of trypsin; type: functional, organism-based
Escherichia coli [2] = assay: Antibacterial activity against Escherichia coli KCTC 1682 assessed as growth inhibition at 50 ug/ml after 18 to 20 hrs by broth microdilution method in presence of trypsin; type: functional, organism-based
Staphylococcus aureus [3] = assay: Antibacterial activity against Staphylococcus aureus KCTC 1621 assessed as growth inhibition after 18 to 20 hrs by broth microdilution method in presence of NaCl; type: functional
Bacillus subtilis [4] = assay: Antibacterial activity against Bacillus subtilis KCTC 3068 assessed as growth inhibition after 18 to 20 hrs by broth microdilution method in presence of NaCl; type: functional
[5] = system: Staphylococcus epidermidis; assay: Antibacterial activity against Staphylococcus epidermidis KCTC 1917 assessed as growth inhibition after 18 to 20 hrs by broth microdilution method in presence of NaCl; type: functional
Salmonella typhimurium [6] = assay: Antibacterial activity against Salmonella typhimurium KCTC 1926 assessed as growth inhibition after 18 to 20 hrs by broth microdilution method in presence of NaCl; type: functional, Salmonella enterica subsp. enterica serovar Typhimurium; details: Salmonella enterica
Pseudomonas aeruginosa [7] = assay: Antibacterial activity against Pseudomonas aeruginosa KCTC 1637 assessed as growth inhibition after 18 to 20 hrs by broth microdilution method in presence of NaCl; type: functional
Escherichia coli [8] = assay: Antibacterial activity against Escherichia coli KCTC 1682 assessed as growth inhibition after 18 to 20 hrs by broth microdilution method in presence of NaCl; type: functional
Staphylococcus aureus [9] = assay: Antibacterial activity against methicillin-resistant Staphylococcus aureus CCARM 3095 assessed as growth inhibition after 18 to 20 hrs by broth microdilution method; type: functional
[10] = Hemolytic activity in human RBC assessed as hemoglobin release after 1 hr; type: ADME, cell-based, Erythrocyte; details: red blood cells (RBC)
Staphylococcus aureus [11] = assay: Antibacterial activity against Staphylococcus aureus KCTC 1621 assessed as growth inhibition after 18 to 20 hrs by broth microdilution method; type: functional
Bacillus subtilis [12] = assay: Antibacterial activity against Bacillus subtilis KCTC 3068 assessed as growth inhibition after 18 to 20 hrs by broth microdilution method; type: functional
[13] = system: Staphylococcus epidermidis; assay: Antibacterial activity against Staphylococcus epidermidis KCTC 1917 assessed as growth inhibition after 18 to 20 hrs by broth microdilution method; type: functional
Salmonella typhimurium [14] = assay: Antibacterial activity against Salmonella typhimurium KCTC 1926 assessed as growth inhibition after 18 to 20 hrs by broth microdilution method; type: functional, Salmonella enterica subsp. enterica serovar Typhimurium; details: Salmonella enterica
Pseudomonas aeruginosa [15] = assay: Antibacterial activity against Pseudomonas aeruginosa KCTC 1637 assessed as growth inhibition after 18 to 20 hrs by broth microdilution method; type: functional
Escherichia coli [16] = assay: Antibacterial activity against Escherichia coli KCTC 1682 assessed as growth inhibition after 18 to 20 hrs by broth microdilution method; type: functional
Staphylococcus aureus [17] = assay: Antibacterial activity against methicillin-resistant Staphylococcus aureus CCARM 3089 assessed as growth inhibition after 18 to 20 hrs by broth microdilution method; type: functional
Staphylococcus aureus [18] = assay: Antibacterial activity against methicillin-resistant Staphylococcus aureus CCARM 3090 assessed as growth inhibition after 18 to 20 hrs by broth microdilution method; type: functional
Staphylococcus aureus [19] = assay: Antibacterial activity against Staphylococcus aureus KCTC 1621 assessed as disruption of cellular structure at 3 x MIC after 1 hr by transmission electron microscopic analysis; type: functional, organism-based
Escherichia coli [20] = assay: Antibacterial activity against Escherichia coli KCTC 1682 assessed as disruption of cellular structure at 3 x MIC after 1 hr by transmission electron microscopic analysis; type: functional, organism-based

SMILES	growth inhibition (GI) (Staphylococcus aureus [1])	growth inhibition (GI) (Escherichia coli [2])	MIC (Staphylococcus aureus [3])	MIC (Bacillus subtilis [4])	MIC [5]	MIC (Salmonella typhimurium [6])	MIC (Pseudomonas aeruginosa [7])	MIC (Escherichia coli [8])	MIC (Staphylococcus aureus [9])	HC50 at 1 h [10]	MIC (Staphylococcus aureus [11])	MIC (Bacillus subtilis [12])	MIC [13]	MIC (Salmonella typhimurium [14])	MIC (Pseudomonas aeruginosa [15])	MIC (Escherichia coli [16])	MIC (Staphylococcus aureus [17])	MIC (Staphylococcus aureus [18])	Activity (Staphylococcus aureus [19])	Activity (Escherichia coli [20])
CCCCCCCCCCn1c[n+](CCCCCCCCCC)cc1C[C@H](N)C(=O)N[C@@H](CCCNC(=N)N)C(N)=O	Active	Active	2 µg/mL	2 µg/mL	2 µg/mL	8 µg/mL	8 µg/mL	8 µg/mL	2 µg/mL	49 µg/mL	2 µg/mL	2 µg/mL	2 µg/mL	4 µg/mL	8 µg/mL	4 µg/mL	2 µg/mL	4 µg/mL		
CCCCCCCn1c[n+](CCCCCCC)cc1C[C@H](NC(=O)[C@@H](N)CCCNC(=N)N)C(=O)N[C@@H](CCCNC(=N)N)C(N)=O	Active	Active	8 µg/mL	8 µg/mL	16 µg/mL	32 µg/mL	8 µg/mL	> 32 µg/mL	4 µg/mL	> 256 µg/mL	4 µg/mL	2 µg/mL	2 µg/mL	8 µg/mL	8 µg/mL	4 µg/mL	4 µg/mL	8 µg/mL	Active	Active
CCCCCCCCCCn1c[n+](CCCCCCCCCC)cc1C[C@H](NC(=O)[C@H](CCCNC(=N)N)NC(=O)[C@@H](N)CCCNC(=N)N)C(N)=O	Active	Active	4 µg/mL	4 µg/mL	4 µg/mL	16 µg/mL	8 µg/mL	16 µg/mL	8 µg/mL	116 µg/mL	8 µg/mL	8 µg/mL	8 µg/mL	8 µg/mL	8 µg/mL	16 µg/mL	8 µg/mL	8 µg/mL	Active	Active
CCCCCCCCCCCCCCn1c[n+](CCCCCCCCCCCCCC)cc1C[C@H](NC(=O)[C@@H](N)CCCNC(=N)N)C(=O)N[C@@H](CCCNC(=N)N)C(N)=O			> 64 µg/mL	> 64 µg/mL	> 64 µg/mL	> 64 µg/mL	> 64 µg/mL	> 64 µg/mL	> 64 µg/mL	> 256 µg/mL	> 64 µg/mL	> 64 µg/mL	> 64 µg/mL	> 64 µg/mL	> 64 µg/mL	> 64 µg/mL	> 64 µg/mL	> 64 µg/mL		
CC[C@H](C)[C@H](NC(=O)CN)C(=O)NCC(=O)N[C@@H](C)C(=O)N[C@H](C(=O)N[C@@H](CC(C)C)C(=O)N[C@@H](CCCCN)C(=O)N[C@H](C(=O)N[C@@H](CC(C)C)C(=O)N[C@H](C(=O)N[C@H](C(=O)NCC(=O)N[C@@H](CC(C)C)C(=O)N1CCC[C@H]1C(=O)N[C@@H](C)C(=O)N[C@@H](CC(C)C)C(=O)N[C@H](C(=O)N[C@@H](CO)C(=O)N[C@@H](Cc1c[nH]c2ccccc12)C(=O)N[C@H](C(=O)N[C@@H](CCCCN)C(=O)N[C@@H](CCCNC(=N)N)C(=O)N[C@@H](CCCCN)C(=O)N[C@@H](CCCNC(=N)N)C(=O)N[C@@H](CCC(N)=O)C(=O)N[C@@H](CCC(N)=O)C(N)=O)[C@@H](C)CC)[C@@H](C)CC)[C@@H](C)O)[C@@H](C)O)C(C)C)C(C)C	inactive	inactive																		
CCCCCCCCCCn1cncc1C[C@H](NC(=O)[C@@H](N)CCCNC(=N)N)C(=O)N[C@@H](CCCNC(=N)N)C(N)=O	Active	Active	32 µg/mL	8 µg/mL	32 µg/mL	> 64 µg/mL	16 µg/mL	> 64 µg/mL	8 µg/mL (≈ 13.2 µM)	> 256 µg/mL	4 µg/mL (≈ 6.59 µM)	2 µg/mL (≈ 3.3 µM)	2 µg/mL (≈ 3.3 µM)	32 µg/mL (≈ 52.7 µM)	16 µg/mL (≈ 26.4 µM)	16 µg/mL (≈ 26.4 µM)	8 µg/mL (≈ 13.2 µM)	8 µg/mL (≈ 13.2 µM)		
CCCCCCC/C=C/Cn1cncc1C[C@H](NC(=O)[C@@H](N)CCCNC(=N)N)C(=O)N[C@@H](CCCNC(=N)N)C(N)=O			32 µg/mL	16 µg/mL	64 µg/mL	64 µg/mL	64 µg/mL	> 64 µg/mL	16 µg/mL (≈ 26.5 µM)	> 256 µg/mL	8 µg/mL (≈ 13.2 µM)	4 µg/mL (≈ 6.61 µM)	4 µg/mL (≈ 6.61 µM)	64 µg/mL (≈ 106 µM)	32 µg/mL (≈ 52.9 µM)	32 µg/mL (≈ 52.9 µM)	16 µg/mL (≈ 26.5 µM)	16 µg/mL (≈ 26.5 µM)		
CC[C@H](C)[C@H](NC(=O)[C@H](CCCCN)NC(=O)[C@H](CCC(=O)O)NC(=O)[C@H](CCCCN)NC(=O)[C@H](CO)NC(=O)[C@H](CCCCN)NC(=O)[C@H](CCCNC(=N)N)NC(=O)[C@H](Cc1ccccc1)NC(=O)[C@H](Cc1ccccc1)NC(=O)[C@H](CC(=O)O)NC(=O)CNC(=O)[C@H](CC(C)C)NC(=O)[C@@H](N)CC(C)C)C(=O)NCC(=O)N[C@@H](CCCCN)C(=O)N[C@@H](CCC(=O)O)C(=O)N[C@@H](Cc1ccccc1)C(=O)N[C@@H](CCCCN)C(=O)N[C@@H](CCCNC(=N)N)C(=O)N[C@H](C(=O)N[C@H](C(=O)N[C@@H](CCC(N)=O)C(=O)N[C@@H](CCCNC(=N)N)C(=O)N[C@H](C(=O)N[C@@H](CCCCN)C(=O)N[C@@H](CC(=O)O)C(=O)N[C@@H](Cc1ccccc1)C(=O)N[C@@H](CC(C)C)C(=O)N[C@@H](CCCNC(=N)N)C(=O)N[C@@H](CC(N)=O)C(=O)N[C@@H](CC(C)C)C(=O)N[C@H](C(=O)N1CCC[C@H]1C(=O)N[C@@H](CCCNC(=N)N)C(=O)N[C@H](C(=O)N[C@@H](CCC(=O)O)C(=O)N[C@@H](CO)C(N)=O)[C@@H](C)O)C(C)C)[C@@H](C)CC)C(C)C)[C@@H](C)CC	inactive	inactive	> 64 µg/mL	16 µg/mL	> 64 µg/mL	32 µg/mL	64 µg/mL	16 µg/mL	> 32 µg/mL	> 256 µg/mL	32 µg/mL (≈ 7.12 µM)	32 µg/mL (≈ 7.12 µM)	16 µg/mL (≈ 3.56 µM)	16 µg/mL (≈ 3.56 µM)	64 µg/mL (≈ 14.2 µM)	32 µg/mL (≈ 7.12 µM)	> 32 µg/mL	> 32 µg/mL		
